In patent publication US11541029B2, “High penetration compositions and their applications” (Techfields Pharma Co., Ltd., priority 2008, dated 2023):
Non-standard residues stand in square brackets, D forms with d. *: point of attachment. Arg(NO2) = N=C(NCCC[C@H](N)C(=O)O)N[N+](=O)[O-]; OCH2CH2CH2CH3 = CCCCO*

Assays:
[1] = system: rats given sterilized E. coli suspension as a pyrogen; test: Antipyretic activity of ibuprofen and its HPC (Study A); type: in vivo; conditions: 20 mg/kg, oral administration
[2] = system: carrageenin-induced swelling of rat hind paw; test: Anti-inflammatory activity, carrageenin paw swelling; type: in vivo, rats
[3] = system: GK rats (SLAC/GK, type 2 diabetes); test: Anti-diabetes (type II) activity of HPCs of NSAIAs in GK rats; type: in vivo; conditions: 30 mg/kg transdermally once per day, no fasting
Description: (§1) A HPC in the present disclosure lowered blood glucose levels in rat models (SLAC/GK, type 2 diabetes, n=7). 30 mg/kg of 8% diethylaminoethyl acetylsalicylate.HCl salt (P-1, in 25% ethanol); 4-acetamidophenyl salicylyldimethylaminobutyrate.HCl (P-6, in 25% ethanol), diethylaminoethyl 5-(2,4-difluorophenyl)acetylsalicylate.5-(2,4-difluorophenyl)acetylsalicylic acid salt (P-8, in 25% ethanol), diethylaminoethyl salicylsalicylate.HCl salt (P-9, in 25% ethanol), diethylaminoethyl salicylate.AcOH(P-10, in 25% ethanol), diethylaminoethyl 5-acetamido-acetylsalicylate.HCl(P-58, in 25% ethanol), diethylaminoethyl acetylsalicylsalicylate. HCl salt (P-59, in 25% ethanol), diethylaminoethyl acetylsalicylsalicylsalicylate. HCl salt (P-60, in 25% ethanol) were administered transdermally to the backs (6 cm^2, fur was shaved) of GK rats (SLAC/GK, 14-16 weeks old) and normal SD rats (SLAC/SD, 14-16 weeks old) once per day (at 8 am) for 6 weeks.
(§2) The blood glucose levels were measured once every 3 days at 4:30 pm (no fasting) from the third week to the sixth week as shown in Table 10a and 10b. […] Moreover, the blood glucose levels of the rats stayed at normal level (6-9 mmol/L, no fasting) after the treatment was stopped for 40 days.

normal SD rats (SLAC/SD) = test: Blood glucose in normal SD rats treated with HPCs of NSAIAs; type: in vivo; conditions: 30 mg/kg transdermally once per day, no fasting
Description: as §1, §2

SLAC/DB/DB obese mice = test: Blood glucose and blood lipid levels in DB/DB mice; type: in vivo; conditions: 30 mg/kg transdermally once per day
Description: HPCs in the present disclosure lowered blood glucose levels and blood lipid levels in mice models (SLAC/DB/DB, obese mice, n=7). 30 mg/kg of 8% diethylaminoethyl acetylsalicylate.HCl salt (P-1, in 25% ethanol); 4-acetamidophenyl salicylyldimethylaminobutyrate.HCl (P-6, in 25% ethanol), diethylaminoethyl 5-(2,4-difluorophenyl)acetylsalicylate.5-(2,4-difluorophenyl)acetylsalicylic acid salt (P-8, in 25% ethanol), diethylaminoethyl salicylsalicylate.HCl salt (P-9, in 25% ethanol), diethylaminoethyl salicylate.AcOH(P-10, in 25% ethanol), diethylaminoethyl 5-acetamido-acetylsalicylate.HCl(P-58, in 25% ethanol), diethylaminoethyl acetylsalicylsalicylate.HCl salt (P-59, in 25% ethanol), diethylaminoethyl acetylsalicylsalicylsalicylate.HCl salt (P-60, in 25% ethanol) were administered transdermally to the backs (4 cm^2,fur was shaved) of DB/DB mice(SLAC/DB/DB, 10-12 weeks old) once per day (at 8 am) for 5 weeks. The blood glucose levels were measured once per week and blood lipid levels were measured once every other week.

[4] = system: SLAC:NOD-IDDM, type 1 diabetes; test: Anti-diabetes (type I) activity of HPCs of NSAIAs; type: in vivo, mice
Source text: 10% aqueous solution of diethylaminoethyl acetylsalicylate.acetylsalicylic acid salt (P-1, […]); 4-acetamidophenyl salicylyldimethylaminobutyrate. HCl (P-6), diethylaminoethyl 5-(2,4-difluorophenyl)acetylsalicylate.5-(2,4-difluorophenyl)acetylsalicylic acid salt (P-8), diethylaminoethyl salicylsalicylate.AcOH(P-9), diethylaminoethyl 5-acetamido-acetylsalicylate. HCl (P-58), diethylaminoethyl 2-(ρ-isobutylphenyl) propionate.citric acid (P-59), diethylaminoethyl acetylsalicylsalicylate. acetylsalicylsalicylsalicylic acid salt (P-60) (equal to of 20 mg/kg of NSAIAs) were administered transdermally to the shaved back (about 1.5 cm^2) of mice twice per day (at 8 am and 5 pm) for 7 weeks.
The blood glucose levels were measured once every 3 days at 4:30 pm (no fasting) from the fourth week to the seventh week as shown in Table 11.

[5] = system: autologous blood clots injected in femoral vein (pulmonary thrombus); test: Anti-thrombosis activity, autologous blood clots in rabbits; type: in vivo, Chinese White rabbits; conditions: 50 mg/kg topically to the back twice per day, 5 days
Description: Eighteen Chinese White rabbits weighing between 3.0 and 3.5 kg (aged 6-7 months) were selected and divided into three groups (control, P-1 and […] groups, n=6). One hour before the experiment, thrombi were made by aspirating venous blood (1 ml) into a sterilized bottle to clot. To avoid fragmentation and slow lysis, the autologous blood clots were stabilized in temperature-controlled (70° C.) distilled water for 10 min. After anesthesia, the femoral veins were exposed and distally isolated, and autologous blood clots (0.05 g/kg) were injected through an indwelling catheter (20GA), which had been placed in the femoral vein isolated earlier. 50 mg/kg of diethylaminoethyl acetylsalicylate.HCl salt (P-1, 10% in 25% ethanol) and diethylaminoethyl acetylsalicylsalicylate.HCl salt (P-59, 10% in 25% ethanol) were topically applied to the back of the rabbits twice per day. After 5 days, rabbits were euthanized with an excessive intravenous injection of sodium amobarbital (60 mg/kg). The lungs and hearts were isolated to observe whether thrombi were present in the pulmonary arteries. The lungs were immersed in 10% formalin for 24 h. Consecutive transverse sections along the obstructed pulmonary arteries were paraffin-embedded and stained with hematoxylin-eosine. […]

spinal cord injuries = test: Spinal cord injury in paralyzed rats; type: in vivo; conditions: 5 mg in 0.2 ml water on area of injury twice per day for 1 months, n=10
Description: A paralyzed rat was produced by anesthetizing with chloral hydrate first, and then hitting at its spinal cord to induce spinal cord injuries. On the next day, 20 completely paralyzed rats were divided into 2 groups. […] In group B (n=10), 5 mg of diethylaminopropyl acetylsalicylate.HCl in 0.2 ml of pure water was applied to the area of injury (˜2×3 cm^2) twice per day for 1 months. After the treatment, all rats (10/10) in group A were still completely paralyzed. While all rats (10/10) in group B could walk. 4 Rats of group B acted completely normal and the other 6 rats walked more slowly and less confidently than before their injury.

Tg2576 mouse model of AD = test: Anti-Alzheimer disease activity in Tg2576 mice; type: in vivo
Source text: For many years, efforts have been focused on the development of inhibitors of β-amyloid (Aβ) formation and its related neurotoxic effects. To determine the effect of diethylaminopropyl acetylsalicylate. HCl on in vivo AD accumulation, we administered transdermally diethylaminopropyl acetylsalicylate. […] Three-month-old female transgenic mice overexpressing the human APP gene containing the Swedish mutation that causes familial AD (Tg2576 line) were used for testing the effects of diethylaminopropyl acetylsalicylate.HCl in vivo. 20 Tg2576 mice were divided into 2 groups. […] In group B (n=10), 50 mg/kg of diethylaminopropyl acetylsalicylate.HCl in 0.2 ml of pure water was applied to the back of mouse once per day for 2 months. Then the animals were killed and their brains were removed for analysis. For Aβ analysis, hemibrains were dounce homogenized in 70% formic acid at 150 mg tissue/ml formic acid solution. Homogenates were transferred to a chilled ultracentrifuge and were then spun at 100,000 g for 1 h at 4° C. Supernatants were collected and neutralized with formic acid neutralization buffer (1.0 M Tris base, 0.5 M NaH2PO4, and 0.05% NaN3; 1:20) for Aβ quantitation by ELISA. Aβ40 and Aβ42 were assayed by ELISA. Four individual experiments were performed. To compare across studies, the values for an individual study were normalized using the values obtained for the control animals included in each study. Values represent the mean±SE for the n number shown, after normalizing.
To determine if the transdermal administration of diethylaminopropyl acetylsalicylate.HCl has beneficial functional consequences, we tested 2 months of diethylaminopropyl acetylsalicylate.HCl (50 mg/kg) in the transgenic model for Alzheimer's disease in which mice develop learning deficits as amyloid accumulates. […] In the diethylaminopropyl acetylsalicylate.HCl (50 mg/kg) treated group, all mice performed superbly on the radial-arm water-maze test of working memory and untreated transgenic mice show memory deficits. […] This therapeutic approach can thus prevent and treat Alzheimer's dementia.

[6] = system: Female Sprague Dawley (SD) rats; test: Anti-obesity in Sprague Dawley rats; type: in vivo
Description: 20 Female Sprague Dawley (SD) rats (20 weeks old, 320-345 g) were divided into 2 groups. In group A, 0.2 ml of water was administered to the back of rat (n=10) twice per day for 30 days. In Group B, 10 mg/kg of H-Val-Pro-Gly-Pro-Arg(NO2)—OCH2CH2CH2CH3.HCl in 0.2 ml of water was administered transdermally to the backs of rats (n=10) twice per day for 30 days.

[7] = system: obese DB/DB mice (SLAC/DB/DB); test: Anti-obesity in obese mice (SLAC/DB/DB); type: in vivo
Description: 20 obese DB/DB mice (SLAC/DB/DB) mice (16 weeks old, 55-60 g) were divided into 2 groups. In group A, 0.1 ml of water was administered to the back of mouse (n=10) twice per day for 30 days. In Group B, 15 mg/kg of H-Val-Pro-Gly-Pro-Arg(NO2)—OCH2CH2CH2CH3.HCl in 0.2 ml of water was administered transdermally to the backs of rats (n=10) twice per day for 30 days.

[8] = 10 mg/kg transdermally twice per day for 30 days
[9] = 15 mg/kg transdermally twice per day for 30 days

CCN(CC)CCOC(=O)C(C)c1ccc(CC(C)C)cc1 (stereo not drawn) [HPC of ibuprofen, diethylaminoethyl 2-(ρ-isobutylphenyl) propionate]
antipyretic effect [1]: almost the same effect as 100 mg/kg of ibuprofen | anti-inflammatory activities, times stronger than parent drug ibuprofen ([2]; transdermal or oral administrations): more than 5 times

CCN(CC)CCOC(=O)c1ccccc1OC(=O)c1ccccc1OC(C)=O.Cl [P-59, diethylaminoethyl acetylsalicylsalicylate. HCl salt]
blood glucose, Average (Week 2-5) [3]: 8.2 ± 2.7 mmol/L | blood glucose, Day 1 [3]: 16.8 ± 3.0 mmol/L | blood glucose, Average (Week 2-5) (normal SD rats (SLAC/SD)): 5.8 ± 1.0 mmol/L | blood glucose, Day 1 (normal SD rats (SLAC/SD)): 5.7 ± 1.3 mmol/L | Cholesterol (total), Day 1 (SLAC/DB/DB obese mice): 6.6 ± 0.4 mmol/L | Cholesterol (total), Week 5 (SLAC/DB/DB obese mice): 4.7 ± 0.4 mmol/L | Triglycerides, Day 1 (SLAC/DB/DB obese mice): 4.6 ± 0.4 mmol/L | Triglycerides, Week 5 (SLAC/DB/DB obese mice): 4.6 ± 0.5 mmol/L | blood glucose, Day 1 (SLAC/DB/DB obese mice): 14.2 ± 2.2 mmol/L | blood glucose, Week 5 (SLAC/DB/DB obese mice): 8.1 ± 2.4 mmol/L | blood glucose, Baseline ([4]; equal to 20 mg/kg of NSAIAs transdermally twice per day for 7 weeks): 19.1 ± 3.2 mmol/L | blood glucose, Average ([4]; fourth week to seventh week, no fasting, equal to 20 mg/kg of NSAIAs transdermally twice per day): 8.9 ± 1.7 mmol/L | lung tissue and vascular walls (histology) [5]: both lung tissue and vascular walls were normal

CCN(CC)CCOC(=O)C(C)c1ccc(CC(C)C)cc1.O=C(O)CC(O)(CC(=O)O)C(=O)O (stereo not drawn) [diethylaminoethyl 2-(p-isobutylphenyl)propionate.citric acid]
anti-inflammatory activity (rate of swelling) compared with ibuprofen ([2]; 20 mg/kg (2×10 mg) transdermally): much stronger than that of 100 mg/kg of ibuprofen (oral) | anti-inflammatory activity (rate of swelling) compared with ibuprofen ([2]; 50 mg/kg orally): much stronger than that of 100 mg/kg of ibuprofen (oral)

CCN(CC)CCCOC(=O)c1ccccc1OC(C)=O.Cl [diethylaminopropyl acetylsalicylate.HCl]
rats that acted completely normal after the treatment (spinal cord injuries): 4 | rats that could walk after the treatment (spinal cord injuries): 10/10 | reduction in Aβ42 concentration in the brain (Tg2576 mouse model of AD; 50 mg/kg transdermally once per day for 2 months): 70% | Aβ42 concentration (Tg2576 mouse model of AD; 50 mg/kg transdermally once per day for 2 months, ELISA): 2.3 ± 0.3 pmol/g tissue | cognitive performance, radial-arm water-maze test of working memory (Tg2576 mouse model of AD; 50 mg/kg, 2 months): performed as well as nontransgenic mice

H-Val-Pro-Gly-Pro-Arg(NO2)—OCH2CH2CH2CH3.HCl (H-VPGP[Arg(NO2)]-OCH2CH2CH2CH3; also: HCl salt)
Food intake (per day & per rat) [6, 8]: 17.5 ± 1.2 | Weight (Day1) [6, 8]: 333.5 ± 4.2 g | Weight (Day 30) [6, 8]: 301.4 ± 3.7 g | control group heavier than the peptide treated group ([6]; rat, in vivo): about 17% | Food intake (per day & per rat) [7, 9]: 3.9 ± 0.3 | Weight (Day1) [7, 9]: 57.1 ± 1.8 g | Weight (Day 30) [7, 9]: 53.4 ± 4.7 g | control group heavier than the peptide treated group ([7]; mouse, in vivo): about 26%
